Experimental data as given in US20240148821A1, “PHARMACEUTICAL USE OF CYCLIC PEPTIDE COMPOUND” (CHUGAI SEIYAKU KABUSHIKI KAISHA, priority 2021, published 2024).
Numbered stars: 1 amine (or outer) side, 2 acyl side, 3 side chain; on linkers, the order of the positions; unused ones are H or OH. Bridge positions count the residues as written; N and C are the ends. Square brackets hold non-standard residues; d marks the D form. Peptide text beside a SMILES is read from it. * marks the point of attachment. hPhe(3-Cl-4-CF3) = N[C@@H](CCc1ccc(C(F)(F)F)c(Cl)c1)C(=O)O; hPhe(3-F,4-CF3) = N[C@@H](CCc1ccc(C(F)(F)F)c(F)c1)C(=O)O; hPhe(4-CF3) = N[C@@H](CCc1ccc(C(F)(F)F)cc1)C(=O)O; X22 = O=C([C@H](CCc1ccc(C(F)F)nc1)N[*:1])[*:2]; NMePhe(4-Cl) = CN[C@@H](Cc1ccc(Cl)cc1)C(=O)O; NMePhe(4-Me) = CN[C@@H](Cc1ccc(C)cc1)C(=O)O; NMedβ3hAla = C[C@H](CC(=O)[*:2])N(C)[*:1]; NMeGly(cPent) = CN[C@H](C(=O)O)C1CCCC1; NMeCha = CN[C@@H](CC1CCCCC1)C(=O)O; NMeChg = CN[C@H](C(=O)O)C1CCCCC1; NMeF = CN[C@@H](Cc1ccccc1)C(=O)O; NMeI = CC[C@H](C)[C@H](NC)C(=O)O; NMeT = CN[C@H](C(=O)O)[C@@H](C)O; NMeD = CN[C@@H](CC(=O)O)C(=O)O; NMeL = CN[C@@H](CC(C)C)C(=O)O; Oxazolidin(3-yl) = C1CN(*)CO1; NMeV = CN[C@H](C(=O)O)C(C)C; d(β3hA) = C[C@@H](N)CC(=O)O; NMeA = CN[C@@H](C)C(=O)O; NMeAib = CNC(C)(C)C(=O)O; Piperidide = C1CCN(*)CC1; Ac5c = NC1(C(=O)O)CCCC1; Aze = O=C(O)[C@@H]1CCN1; Alloc = C=CCOC(=O)*; NEtG = CCNCC(=O)O; Sar = CNCC(=O)O

Tests used:
[1] = target: protein-protein interaction between Kras and SOS1 (biotin-tagged human Kras loaded with GDP, His-tagged human SOS1) (Homo sapiens (Human), UniProt P01116, G12D); test: Protein-protein interaction inhibition between Kras and SOS1 (KrasG12D-SOS PPI) using AlphaScreen; format: biochemical; settings: AlphaScreen; biotin-tagged human Kras loaded with GDP, His-tagged human SOS1; read-out: KRAS G12D-SOS PPI IC50;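 also: kras produced in E. coli, Ni-coupled donor beads and streptavidin acceptor beads, excitation 680 nm with emission detected at 520–620 nm via singlet oxygen transfer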
[2] = test system: Human pancreatic cancer cell line AsPC-1 (G12D mutation Kras); test: AsPC-1 cell growth inhibition (AsPC-1 CGI); format: cell-based; settings: read-out: AsPC-1 cell growth inhibition, 50% growth inhibitory concentration (IC50 value); 96 hours, CellTiter-Glo, values classified in ranges

Row | SMILES | IC50 [1] [nM] | IC50 [2] [nM]
1 | C=CCOC(=O)NCCCC[C@@H]1NC(=O)[C@H](CCc2ccc(C(F)(F)F)cc2)NC(=O)CN(C)C(=O)[C@H](Cc2ccc(Cl)cc2)N(C)C(=O)CN(C)C(=O)CN(C)C(=O)[C@H]([C@@H](C)CC)NC(=O)[C@H](CC(C)C)N(C)C(=O)C[C@@H](C)N(C)C(=O)[C@H](CC(C)C)NC(=O)C(C)(C)N(C)C1=O [Compound 12] (cyclo(I[Sar][Sar][NMePhe(4-Cl)][Sar][hPhe(4-CF3)]K(Alloc)[NMeAib]L[NMedβ3hAla][NMeL])) | 240 | > 500
2 | CC[C@H](C)[C@@H]1NC(=O)[C@H](CC(C)C)N(C)C(=O)C[C@@H](C(=O)N(C)C)N(C)C(=O)[C@H]([C@@H](C)CC)N(C)C(=O)C2(CCCC2)NC(=O)[C@@H]2CCCN2C(=O)[C@H](CCc2ccc(C(F)(F)F)c(F)c2)NC(=O)CN(C)C(=O)[C@H](C2CCCC2)N(C)C(=O)[C@@H]2CCN2C(=O)[C@H](C)N(C)C1=O [Compound 555] ([NMeL]I[NMeA][Aze][NMeGly(cPent)][Sar][hPhe(3-F,4-CF3)]P[Ac5c][NMeI][NMeD]-NMe2; lactam N-11) | 2.6 | ≤ 20
3 | CC[C@H](C)[C@@H]1NC(=O)[C@H](CC(C)C)N(C)C(=O)C[C@@H](C(=O)N(C)C)N(C)C(=O)[C@H]([C@@H](C)CC)N(C)C(=O)C2(CCCC2)NC(=O)[C@@H]2CCCN2C(=O)[C@H](CCc2ccc(C(F)(F)F)c(Cl)c2)NC(=O)CN(CC)C(=O)[C@H](Cc2ccc(C)cc2)N(C)C(=O)[C@@H]2CCN2C(=O)[C@H](C)N(C)C1=O [Compound 1120] ([NMeL]I[NMeA][Aze][NMePhe(4-Me)][NEtG][hPhe(3-Cl-4-CF3)]P[Ac5c][NMeI][NMeD]-NMe2; lactam N-11) | 2.5 | ≤ 20
4 | CC[C@H](C)[C@@H]1NC(=O)[C@H](CC(C)C)NC(=O)C[C@@H](C)NC(=O)[C@H](C2CCCC2)N(C)C(=O)C2(CCCC2)NC(=O)[C@@H]2CCCN2C(=O)[C@H](CCc2ccc(C(F)(F)F)c(Cl)c2)NC(=O)CN(C)C(=O)[C@H](Cc2ccc(C)cc2)N(C)C(=O)[C@@H]2CCN2C(=O)[C@H](C)N(C)C1=O [Compound 648] (cyclo([Ac5c][NMeGly(cPent)][d(β3hA)]LI[NMeA][Aze][NMePhe(4-Me)][Sar][hPhe(3-Cl-4-CF3)]P)) | 3.2 | > 500
5 | CC[C@H](C)[C@@H]1NC(=O)[C@H](CC(C)C)N(C)C(=O)C[C@@H](C)NC(=O)[C@H](C(C)C)N(C)C(=O)[C@H](Cc2ccccc2)N(C)C(=O)[C@H](CC(C)C)N(C)C(=O)[C@H](CCc2ccc(C(F)(F)F)cc2)NC(=O)CN(C)C(=O)[C@H](Cc2ccc(Cl)cc2)N(C)C(=O)CN(C)C(=O)CN(C)C1=O [Compound 124] (cyclo(I[Sar][Sar][NMePhe(4-Cl)][Sar][hPhe(4-CF3)][NMeL][NMeF][NMeV][d(β3hA)][NMeL])) | 140 | > 500
6 | CC[C@H](C)[C@@H]1NC(=O)[C@H](C)N(C)C(=O)C[C@@H](C)NC(=O)[C@H](C2CCCC2)N(C)C(=O)C2(CCCC2)NC(=O)[C@@H]2CCCN2C(=O)[C@H](CCc2ccc(C(F)(F)F)c(Cl)c2)NC(=O)CN(C)C(=O)[C@H](Cc2ccc(C)cc2)N(C)C(=O)[C@@H]2CCCN2C(=O)CN(C)C1=O [Compound 151] (cyclo([Ac5c][NMeGly(cPent)][d(β3hA)][NMeA]I[Sar]P[NMePhe(4-Me)][Sar][hPhe(3-Cl-4-CF3)]P)) | 5 | > 500
7 | CC[C@H](C)[C@@H]1NC(=O)[C@H](CC(C)C)N(C)C(=O)C[C@@H](C(=O)N2CCOC2)NC(=O)[C@H](C(C)C)N(C)C(=O)C2(CCCC2)NC(=O)[C@@H]2CCCN2C(=O)[C@H](CCc2ccc(C(F)(F)F)c(Cl)c2)NC(=O)CN(C)C(=O)[C@H](CC2CCCCC2)N(C)C(=O)[C@@H]2CCN2C(=O)[C@H](C)N(C)C1=O [Compound 1188] ([NMeL]I[NMeA][Aze][NMeCha][Sar][hPhe(3-Cl-4-CF3)]P[Ac5c][NMeV]D-{Oxazolidin(3-yl)}; lactam N-11) | 33 | > 500
8 | CC[C@H](C)[C@@H]1NC(=O)[C@H](CC(C)C)N(C)C(=O)C[C@@H](C(=O)N2CCCCC2)N(C)C(=O)[C@H](C2CCCC2)N(C)C(=O)C2(CCCC2)NC(=O)[C@@H]2CCCN2C(=O)[C@H](CCc2ccc(C(F)F)nc2)NC(=O)CN(C)C(=O)[C@H](CC2CCCCC2)N(C)C(=O)[C@@H]2CCN2C(=O)[C@H](C)N(C)C1=O [Compound 2060] ([NMeL]I[NMeA][Aze][NMeCha][Sar][X22]P[Ac5c][NMeGly(cPent)][NMeD]-Piperidide; lactam N-11 (inferred); C-terminus assumed) | 110 | > 500
9 | CC[C@H](C)[C@@H]1NC(=O)[C@H](CC(C)C)N(C)C(=O)C[C@@H](C(=O)N2CCCCC2)N(C)C(=O)[C@H](C2CCCCC2)N(C)C(=O)C2(CCCC2)NC(=O)[C@H]([C@@H](C)O)N(C)C(=O)[C@H](CCc2ccc(C(F)(F)F)c(Cl)c2)NC(=O)CN(C)C(=O)[C@H](CC2CCCCC2)N(C)C(=O)CN(C)C(=O)CN(C)C1=O [Compound 118] ([NMeL]I[Sar][Sar][NMeCha][Sar][hPhe(3-Cl-4-CF3)][NMeT][Ac5c][NMeChg][NMeD]-Piperidide; lactam N-11) | 1.9 | > 500
